Patent US6894068B2, “Substituted benzimidazoles as non-nucleoside inhibitors of reverse transcriptase” (The United States of America as represented by the …, priority 1997, dated 2005)
“And” between values parts separate entries of the source, which are not always exact repeats. Equal values may be shown once. Read-outs that look alike come from different tables or passages of the source.

Key:
[1] = test system: HIV-1 WT virus (NL4-3); assay: microbe, parasite or virus in culture; assay type: cell-based; conditions: for inhibitory potency against HIV-1 (CIC50), result in words: CEMSS cell culture, WT virus (NL4-3), relative to parent compounds 1 and 2; for EC50: read-out: EC50
Experimental: Evaluation of these compounds for the inhibition of HIV-1 was determined as the fifty percent cell culture inhibitory concentration (CIC50) in CEMSS cell culture with WT virus (NL4-3).
(§1) In this Example, the antiviral and cellular toxicity of NNRTIs was investigated, using the cytopathic cell killing assay described by Yang (Yang et al., “Characteristics of a Group of Non-nucleoside Reverse Transcriptase Inhibitors with Structural Diversity and Potent Anti-Human Immunodeficiency Virus Activity,” Leukemia 9:S75-S85 [1995]). Briefly, in this method cells (e.g., the CEM-SS cell line, available from the NIAID AIDS Research and Reference Program [ARRRP]) were seeded at a density of 5×10^3 cells/well, into the wells of a 96-well microtiter plate. The cells were then infected with HIV virus (either mutant or WT), at a multiplicity of infection (MOI) previously determined to provide complete cell killing by 6 days of culture post-infection (e.g., MOI of 0.01-0.05). Each of the HIV isolates was pre-titered to induce equivalent levels of infection based on cell killing or virus production, prior to their use in these assays. A range of test compound concentrations was added to the wells in triplicate (e.g., serial half-log dilutions) to evaluate inhibition of HIV infection. Controls for each assay included drug controls (drug colorimetric control wells), drug cytotoxicity control wells (cells with drug), virus control wells (cells with virus), and cell viability controls (cells only). Positive control drugs (e.g. AZT and ddC) were also run in parallel.
(§2) After six days of incubation at 37° C., cell viability was determined spectrophotometrically at 450 nm for each well, using the metabolic reduction of XTT to a soluble colored formazan. (See, Gartner and Popovic, “Virus Isolation and Production, in Aldovini and Walker (eds.), Techniques in HIV Research, Stockton Press, NY, pp. […] [1991]; and Nara and Fischinger, “Quantitative Infectivity Assay for HIV-1 and HIV-2, ” Nature 332:469-470 [1988]).
(§3) The in vitro therapeutic index (TI50) was defined as the fold-difference between the EC50 and IC50. The results for the various compounds are included in FIGS. 8 and 19.

[2] = test system: HIV-1 isolate V179D; assay: Cytopathic cell killing assay, MT-4 cells, isolate V179D; assay type: cell-based; conditions: MT-4 cells
Excerpt: (§4) The various HIV isolates tested in the Figures are those corresponding to wild-type virus (NL4-3) and the other strains listed by their RT mutations. The three 4×AZT isolates included in the Figures represent AZT drug-resistant variants. For example, the 4×AZT/L100I isolate has five mutations: four mutations confer increased resistance to AZT, and the other mutation is located within the NNRTI binding pocket. TZB and nevir. (nevirapine) are two well-known NNRTIs, included in this experiment for comparison purposes.
as §1, §2, §3

[3] = molecular target: HIV-1 WT RT (Human immunodeficiency virus type 1 group M subtype B, UniProt P03366); assay: biochemical; assay type: biochemical; conditions: for % inhibn (1 μM) / inhibition at 1 µM: 1 μM drug, WT HIV-1 RT; for inhibition at 1 µM: read-out: % inhibn (1 μM)
[4] = test system: WT and HIV-1 variants containing amino acid substitutions in RT; assay type: cell-based; conditions: cytopathic cell killing assay, NNRTI-resistant HIV isolates
Excerpt: In these Tables, antiviral data are reported as the quantity of drug in μM required to reduce cell killing or virus production by 50% (EC50). The various HIV isolates tested in the Figures are those corresponding to wild-type virus (NL4-3) and the other strains listed by their RT mutations. The three 4×AZT isolates included in the Figures represent AZT drug-resistant variants.
Briefly, in this method cells (e.g., the CEM-SS cell line, available from the NIAID AIDS Research and Reference Program [ARRRP]) were seeded at a density of 5×10^3 cells/well, into the wells of a 96-well microtiter plate. The cells were then infected with HIV virus (either mutant or WT), at a multiplicity of infection (MOI) previously determined to provide complete cell killing by 6 days of culture post-infection (e.g., MOI of 0.01-0.05). Each of the HIV isolates was pre-titered to induce equivalent levels of infection based on cell killing or virus production, prior to their use in these assays. A range of test compound concentrations was added to the wells in triplicate (e.g., serial half-log dilutions) to evaluate inhibition of HIV infection. Controls for each assay included drug controls (drug colorimetric control wells), drug cytotoxicity control wells (cells with drug), virus control wells (cells with virus), and cell viability controls (cells only). Positive control drugs (e.g. AZT and ddC) were also run in parallel.
as §2
Antiviral and toxicity data were reported as the quantity of drug required to inhibit 50% of virus-induced cell killing or virus production (EC50), and the quantity of drug required to […] (IC50). The in vitro therapeutic index (TI50) was defined as the fold-difference between the EC50 and IC50.

[5] = test system: HIV-1 isolate A98G; assay: Cytopathic cell killing assay, MT-4 cells, isolate A98G; assay type: cell-based; conditions: Human immunodeficiency virus 1, MT4, read-out: EC50, isolate A98G, Table 8; MT-4 cells
Excerpt: as §4, §1, §2, §3

[6] = test system: HIV-1 isolate V108I; assay: Cytopathic cell killing assay, MT-4 cells, isolate V108I; assay type: cell-based; conditions: values in μM
Excerpt: as §4, §1, §2, §3

[7] = test system: HIV-1 isolate Y181C; assay: Cytopathic cell killing assay, MT-4 cells, isolate Y181C; assay type: cell-based
Excerpt: as §4, §1, §2, §3

[8] = test system: HIV-1 isolate Y188C; assay: Cytopathic cell killing assay, MT-4 cells, isolate Y188C; assay type: cell-based; conditions: values in μM
Excerpt: as §4, §1, §2, §3

[9] = test system: HIV-1 isolate K103N; assay: Cytopathic cell killing assay, MT-4 cells, isolate K103N; assay type: cell-based; conditions: for EC50: values in μM
Excerpt: as §4, §1, §2, §3

[10] = test system: HIV-1 NL4-3 (WT); assay: Cytopathic cell killing assay, MT-4 cells, isolate NL4-3 (WT); assay type: cell-based
Excerpt: as §4, §1, §2, §3

[11] = test system: HIV-1 isolate 4xAZT/Y181C; assay: Cytopathic cell killing assay, MT-4 cells, isolate 4xAZT/Y181C; assay type: cell-based; conditions: Human immunodeficiency virus 1, MT4, read-out: EC50, isolate 4XAZT/Y181C
Excerpt: as §4, §1, §2, §3

[12] = test system: HIV-1 isolate L100I; assay: Cytopathic cell killing assay, MT-4 cells, isolate L100I; assay type: cell-based
Excerpt: as §4, §1, §2, §3

[13] = test system: HIV-1 isolate K101E; assay: Cytopathic cell killing assay, MT-4 cells, isolate K101E; assay type: cell-based
Excerpt: as §4, §1, §2, §3

[14] = Human immunodeficiency virus 1, NL43, CEM-SS, Table 7, drug concentration required to reduce cell killing or virus production by 50%, WT
[15] = Human immunodeficiency virus 1, NL43, CEM-SS, Table 11, CEMSS/NL4-3, NRVC = no reduction in viral CPE
[16] = Human immunodeficiency virus 1, MT4, read-out: EC50, isolate V108I, Table 10
[17] = Human immunodeficiency virus 1, MT4, read-out: EC50, isolate Y181C, Table 8, MT-4 cells
[18] = Human immunodeficiency virus 1, MT4, read-out: EC50, isolate Y181C, Table 10, values in μM
[19] = Human immunodeficiency virus 1, MT4, read-out: EC50, isolate Y188C, Table 10
[20] = Human immunodeficiency virus 1, MT4, read-out: EC50, isolate K103N, Table 10
[21] = Human immunodeficiency virus 1, NL43, MT4, Table 8, MT-4 cells, read-out: EC50, isolate NL4-3

CNc1cccc2c1nc(-c1c(F)cccc1F)n2Cc1c(F)cccc1F [Compound 5012, 1-(2,6-difluorobenzyl)-2-(2,6-difluorophenyl)-4-(N-methylamino)benzimidazole]
inhibitory potency against HIV-1 (CIC50), result in words [1]: significantly poorer inhibitors
EC50 [1, 14]: 1700 nM
EC50 [1, 15]: 1700 nM
EC50 ([2]; Human immunodeficiency virus 1, MT4, read-out: EC50, isolate V179D, Table 8): 3800 nM
IC50 [3]: 4940 nM
% inhibn (1 μM) ([3]; Table 7): 24%
cross-resistance profile, result in words [4]: inhibit HIV-1 better than TZB

CC(=O)N(C)c1cccc2c1nc(-c1c(F)cccc1F)n2Cc1c(F)cccc1F [Compound 5011, 1-(2,6-difluorobenzyl)-2-(2,6-difluorophenyl)-4-(N-methylacetamido)benzimidazole]
EC50 [1, 14]: 20 nM
EC50 ([1]; Human immunodeficiency virus 1, NL43, CEM-SS, text b130, cytopathic cell killing assay, WT): 20 nM
fold more potent than the 4-methyl or 4-amino compounds (EC50) ([1]; cytopathic cell killing assay): 20 fold
melting point: 155 to 156 °C
EC50 [5]: 100 nM
IC50 [3]: 320 nM
% inhibn (1 μM) ([3]; Table 7): 77%
cross-resistance profile, result in words ([4]; listed as N-methyl acetamido): inhibit HIV-1 better than TZB
cross-resistance profile, result in words ([4]; listed as N-methylacetamido): equal or better against the various variants than nevirapine

Fc1cccc(F)c1Cn1c(-c2c(F)cccc2F)nc2c(Cl)cccc21 [Compound 3500, 4-chloro-1-(2,6-difluorobenzyl)-2-(2,6-difluorophenyl)benzimidazole]
EC50 [6, 16]: 3.2 µM
EC50 [7, 17]: 7.3 µM
EC50 [7, 18]: 8.4 µM
EC50 [8, 19]: 3.4 µM
inhibitory potency against HIV-1 (CIC50), result in words [1]: modest potency-enhancing effect
EC50 [1, 14]: 440 nM
EC50 [1, 15]: 440 nM
melting point: 163 to 164 °C and 163 °C
EC50 [9, 20]: 10.2 µM
EC50 [10, 21]: 0.4 µM
cross-resistance profile, result in words [4]: inhibit HIV-1 better than TZB

Fc1cccc(F)c1Cn1c(-c2c(F)cccc2F)nc2c(Br)cccc21 [Compound 3400, 4-bromo-1-(2,6-difluorobenzyl)-2-(2,6-difluorophenyl)benzimidazole]
EC50 [6, 16]: 4.2 µM
EC50 [7, 18]: 10.7 µM
EC50 [8, 19]: 3.7 µM
EC50 [1, 14]: 370 nM
melting point: 147 to 148 °C

Fc1cccc(F)c1Cn1c(-c2c(F)cccc2F)nc2ccccc21 [Compound 26, 1-(2,6-difluorobenzyl)-2-(2,6-difluorophenyl)benzimidazole]
EC50 [1, 15]: 1700 nM
EC50 [11]: > 20000 nM
inhibition at 1 µM ([3]; Table 5, average of two experiments done in triplicates): 50%
RT inhibition, result in words ([3]; WT RT): four-fold increase in inhibitory activity

Nc1cccc2c1nc(-c1c(F)cccc1F)n2Cc1c(F)cccc1F [Example 53]
EC50 [1, 15]: 460 nM
melting point: 139 to 141 °C
IC50 ([3]; Table 11, WT RT, read-out: IC50): 280 nM

CN(C)c1cccc2c1nc(-c1c(F)cccc1F)n2Cc1c(F)cccc1F [Compound 3700, 1-(2,6-difluorobenzyl)-2-(2,6-difluorophenyl)-4-N,N-dimethylaminobenzimidazole]
EC50 [7, 18]: > 100 µM
EC50 [1, 14]: 2370 nM
EC50 [1, 15]: 2370 nM
melting point: 155 to 156 °C
EC50 [9, 20]: > 100 µM
inhibition at 1 µM ([3]; Table 7): 77%
IC50 ([3]; read-out: IC50): 40000 nM
EC50 ([10]; Human immunodeficiency virus 1, NL43, MT4, Table 10, values in μM, read-out: EC50, isolate NL4-3 (WT)): 2.88 µM
EC50 ([12]; Human immunodeficiency virus 1, MT4, read-out: EC50, isolate L100I, Table 10, values in μM): 31.6 µM

CC1Cn2c(=O)[nH]c3cccc(c32)CN1 (centres unmarked) [TIBO, 4,5,6,7-tetrahydro-5-methylimidazo[4,5,1-jk][1,4]benzodiazepin-2(1H)-one, reference compound]
EC50 ([12]; Human immunodeficiency virus 1, MT4, read-out: EC50, isolate L1001, Table 4, MT-4 cells): ≥ 17.4 µM

Cc1ccnc2c1NC(=O)c1cccnc1N2C1CC1 [nevir., nevirapine, reference compound]
EC50 [7, 17]: 4.9 µM
EC50 [1, 15]: 35 nM
EC50 ([2]; Human immunodeficiency virus 1, MT4, read-out: EC50, isolate V179D, Table 9): 200 nM
activity against K103N, result in words ([9]; cytopathic cell killing assay): ineffective
EC50 ([13]; Human immunodeficiency virus 1, MT4, read-out: EC50, isolate K101E, Table 8, MT-4 cells): 1.1 µM
EC50 [10, 21]: 0.04 µM

[N-]=[N+]=NCc1cccc2c1nc(-c1c(F)cccc1F)n2Cc1c(F)cccc1F [Compound 70, 1-(2,6-difluorobenzyl)-2-(2,6-difluorophenyl)benzimidazol-4-yl-azidomethyl]
EC50 ([6]; Table 10, read-out: EC50, isolate V108I): 0.026 µM
EC50 ([7]; Table 10, values in μM, read-out: EC50, isolate Y181C): 0.82 µM
EC50 ([8]; Table 10, read-out: EC50, isolate Y188C): 0.22 µM
EC50 ([1]; Table 11, CEMSS/NL4-3, NRVC = no reduction in viral CPE): 45 nM
EC50 ([9]; Table 10, read-out: EC50, isolate K103N): 1.48 µM
EC50 ([13]; Table 10, values in μM, read-out: EC50, isolate K101E): 0.6 µM
EC50 ([10]; Table 10, values in μM, read-out: EC50, isolate NL4-3 (WT)): 0.045 µM
EC50 ([12]; Table 10, values in μM, read-out: EC50, isolate L100I): 0.06 µM

Fc1cccc(F)c1-c1nc2ccccc2n1Cc1ccccc1 [Compound 28, 1-benzyl-2-(2,6-difluorophenyl)benzimidazole]
melting point: 124 °C
RT inhibition, result in words ([3]; WT RT): decrease in inhibition
